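Dose response: 5 concentrations. Exposure: 48 h. Format: 96-well plates. Endpoint: linear interpolation; highest concentration if not reached. The concentration for 50% growth inhibition is given as GI50. TGI is the concentration that stops growth completely.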
Legend:
Assay in all cases: NCI tumour cell line growth inhibition, 48 h
[1] = test system: MCF7 breast
[2] = test system: MDA-MB-468 breast
[3] = test system: MALME-3M melanoma
[4] = test system: NCI-H23 lung
[5] = test system: EKVX NSCLC
[6] = test system: UACC-62 melanoma
[7] = test system: HL-60(TB) leukemia
[8] = test system: UO-31 renal
[9] = test system: COLO 205 colon
[10] = test system: U251 CNS
[11] = test system: SF-268 CNS
[12] = test system: SNB-75 CNS
[13] = test system: LOX IMVI melanoma
[14] = test system: NCI-H460 lung
[15] = test system: MOLT-4 leukemia
[16] = test system: SK-MEL-28 melanoma
[17] = test system: K-562 leukemia
[18] = test system: SN12C renal
[19] = test system: HCT-116 colon
[20] = test system: SNB-19 CNS
[21] = test system: HOP-62 NSCLC
[22] = test system: HT29 colon
[23] = test system: MDA-MB-435
[24] = test system: SK-OV-3 ovarian
[25] = test system: OVCAR-4 ovarian
[26] = test system: M14 melanoma
[27] = test system: ACHN renal
[28] = test system: A549 NSCLC
[29] = test system: DU-145 prostate
[30] = test system: RPMI-8226 leukemia
[31] = test system: IGROV1 ovarian
[32] = test system: RXF 393 renal
[33] = test system: HS 578T breast
[34] = test system: NCI-H522 lung
[35] = test system: TK-10 renal
[36] = test system: OVCAR-5 ovarian
[37] = test system: PC-3 prostate
[38] = test system: CAKI-1 renal
[39] = test system: BT-549 breast
[40] = test system: SK-MEL-5 melanoma
[41] = test system: SF-539 CNS
[42] = test system: SK-MEL-2 melanoma
[43] = test system: UACC-257 melanoma
[44] = test system: HCC-2998 colon
[45] = test system: HCT-15 colon
[46] = test system: SF-295 CNS
[47] = test system: A498 renal
[48] = test system: HOP-92 NSCLC
[49] = test system: OVCAR-8 ovarian
[50] = test system: OVCAR-3 ovarian
[51] = test system: MDA-MB-231 breast
[52] = test system: SR leukemia
[53] = test system: SW-620 colon
[54] = test system: NCI/ADR-RES ovarian
[55] = test system: CCRF-CEM leukemia
[56] = test system: T-47D breast
[57] = test system: KM12 colon
[58] = test system: NCI-H226 lung
[59] = test system: 786-0 renal

In the case of `C/C(=C\CC/C=C(\C)CC/C=C(\C)CC[C@@H](O)C(C)(C)O)CC/C=C(\C)CC[C@@H](O)C(C)(C)O`, the GI50 [1] was 6.7 µM, the TGI [1] was 20 µM and the GI50 [2] was 7.97 µM. For the same compound, the TGI [2] was 21.1 µM, the GI50 [3] was 12 µM and the TGI [3] was 24.5 µM. The GI50 [4] was 10.9 µM, the TGI [4] was 23.2 µM and the GI50 [5] was 7.68 µM. The TGI [5] was 20.5 µM, the GI50 [6] was 9.71 µM and the TGI [6] was 21.6 µM. The GI50 [7] was 3.1 µM, the TGI [7] was 11.2 µM and the GI50 [8] was 7.71 µM. It also gave a TGI [8] of 20.7 µM, a GI50 [9] of 17.8 µM and a TGI [9] of 34.6 µM. For the same compound, the GI50 [10] was 13.4 µM, the TGI [10] was 38.1 µM and the GI50 [11] was 13.6 µM. For the same compound, the TGI [11] was 28.3 µM, the GI50 [12] was 12.5 µM and the TGI [12] was 25 µM. For the same compound, the GI50 [13] was 13.4 µM, the TGI [13] was 26.4 µM and the GI50 [14] was 11.3 µM. The TGI [14] was 24.5 µM, the GI50 [15] was 14.4 µM and the TGI [15] was 44.6 µM. It also gave a GI50 [16] of 12.6 µM, a TGI [16] of 25.4 µM and a GI50 [17] of 5.07 µM. For the same compound, the TGI [17] was over 100 µM, the GI50 [18] was 12.6 µM and the TGI [18] was 25.3 µM. It also gave a GI50 [19] of 6.39 µM, a TGI [19] of 21.3 µM and a GI50 [20] of 15 µM. The TGI [20] was 28.5 µM, the GI50 [21] was 17 µM and the TGI [21] was 34.6 µM. It also gave a GI50 [22] of 12 µM, a TGI [22] of 27.4 µM and a GI50 [23] of 14.7 µM. For the same compound, the TGI [23] was 28 µM, the GI50 [24] was 15.8 µM and the TGI [24] was 31 µM. The GI50 [25] was 11 µM, the TGI [25] was 23.4 µM and the GI50 [26] was 10.4 µM. It also gave a TGI [26] of 23.1 µM, a GI50 [27] of 5.78 µM and a TGI [27] of 18.3 µM. It also gave a GI50 [28] of 10 µM, a TGI [28] of 30.2 µM and a GI50 [29] of 15.5 µM. For the same compound, the TGI [29] was 29 µM, the GI50 [30] was 3.74 µM and the TGI [30] was 18.9 µM. For the same compound, the GI50 [31] was 15.4 µM, the TGI [31] was 29.2 µM and the GI50 [32] was 5.93 µM. It also gave a TGI [32] of 20.1 µM, a GI50 [33] of 10.3 µM and a TGI [33] of 26.1 µM. The GI50 [34] was 11 µM, the TGI [34] was 25.9 µM and the GI50 [35] was 17.6 µM. For the same compound, the TGI [35] was 32.5 µM, the GI50 [36] was 14.5 µM and the TGI [36] was 27.8 µM. The GI50 [37] was 5.16 µM, the TGI [37] was 20.1 µM and the GI50 [38] was 12.3 µM. The TGI [38] was 25.1 µM, the GI50 [39] was 5.14 µM and the TGI [39] was 17.4 µM. For the same compound, the GI50 [40] was 5.06 µM, the TGI [40] was 17.4 µM and the GI50 [41] was 13.1 µM. It also gave a TGI [41] of 26.1 µM, a GI50 [42] of 14.4 µM and a TGI [42] of 30 µM. For the same compound, the GI50 [43] was 10.7 µM, the TGI [43] was 23.7 µM and the GI50 [44] was 13.5 µM. It also gave a TGI [44] of 26.4 µM, a GI50 [45] of 10.9 µM and a TGI [45] of 22.8 µM. The GI50 [46] was 7.84 µM, the TGI [46] was 20.9 µM and the GI50 [47] was 12.6 µM. It also gave a TGI [47] of 25.7 µM, a GI50 [48] of 10.2 µM and a TGI [48] of 23.9 µM. For the same compound, the GI50 [49] was 15 µM, the TGI [49] was 34.8 µM and the GI50 [50] was 13.7 µM. The TGI [50] was 26.7 µM, the GI50 [51] was 13.6 µM and the TGI [51] was 26.5 µM. It also gave a GI50 [52] of 18.5 µM, a TGI [52] of 67.8 µM and a GI50 [53] of 14.9 µM. It also gave a TGI [53] of 29.4 µM, a GI50 [54] of 11.1 µM and a TGI [54] of 23.6 µM. For the same compound, the GI50 [55] was 17.9 µM, the TGI [55] was 39.7 µM and the GI50 [56] was 7.75 µM. The TGI [56] was 25 µM, the GI50 [57] was 13.9 µM and the TGI [57] was 27.3 µM. The GI50 [58] was 12.6 µM, the TGI [58] was 27.3 µM and the GI50 [59] was 10.8 µM. The TGI [59] was 24.1 µM.
